Here are results for one molecule from publication PMC11258486, “Phase 1 dose escalation study of the MDM2 inhibitor milademetan as monotherapy and in combination with azacitidine in patients with myeloid malignancies” (Cancer Medicine, 2024).

Usually Tmax stands for the time from dosing to the highest level.

Molecules are shown by their SMILES. Counter-ions that a name gives are not always drawn. Like-named read-outs stand apart in the source and are kept apart here. A value given as a limit tells only on which side of the number the result lay.

The subject of data set [1] is patients with solid tumors or lymphomas. The settings on record: cited from earlier work.
Data set [2] has as its system high‐risk MDS. The data set can be described thus: Treatment response in participants with high‐risk MDS (2006 International Working Group criteria). The note with it: Full Analysis Set. Format: in vivo, human. The protocol:
(§1) Treatment efficacy was assessed according to the 2017 European Leukemia Net recommendations for AML[23] and the 2006 International Working Group response criteria for MDS.[24] In participants with AML, efficacy outcomes included complete remission (CR), CR with incomplete blood count recovery (CRi), composite complete remission (CRc; CR + CRi), morphologic leukemia‐free state (MLFS), partial remission (PR), overall response rate (CRc + MLFS+PR), stable disease (SD), and treatment failure. Bone marrow biopsies/aspirates were obtained from all participants with AML on Day 1 of Cycles 2 and 3 and once every cycle until response and on Day 1 of Cycles 6, 9, and 12 in responding participants.

Data set [3] deals with relapsed or refractory AML. The data set can be described thus: Treatment response in participants with AML (2017 European Leukemia Net recommendations). Format: in vivo, human. Here is the method:
as §1

Data set [4] can be described thus: Milademetan plasma pharmacokinetics. Format: in vivo, human. Also noted: AUC0‐24h versus dose, power model estimated slope: unit not given beside the values. The settings on record: for half-life / Tmax: human, plasma; for half-life: read-out: geometric mean t1/2. From the text: For PK analysis, blood samples were collected at frequent intervals during Cycle 1 Days 1 and 15 in Part 1 (monotherapy), and on Day 5 or 8 (according to dosing schedule) and Day 14 in Part 1A, with sparse sampling on other days.

[5] abbreviates: 160 mg QD for 15 days in Cycle 1.
[6] abbreviates: monotherapy, all studied doses, Cycle 1 Day 1.

With `CC1(C)CCC2(CC1)N[C@@H](C(=O)N[C@@H]1CC[C@@H](C(N)=O)OC1)[C@H](c1ccnc(Cl)c1F)[C@]21C(=O)Nc2cc(Cl)ccc21` [Milademetan monotherapy, milademetan tosylate hydrate], the DLT observed entry in data set [1] (120 mg QD 21/28, phase 1 studies in the United States and Japan) is “thrombocytopenia and nausea”. In addition, in data set [1] (US study in solid tumors, QD 3/14 × 2 schedule), the MTD is listed as 260 mg. Moreover, in data set [2], the “MDS: Marrow CR” value was 1 (11%) n (%) and the “MDS: SD” value is given as 2 (22%) n (%). In data set [3] (Full Analysis Set), the “AML: CR” value is 2 (4%) n (%) and the “AML: CRi” value was 1 (2%) n (%). In data set [3] (as given in the abstract), the “Participants who achieved CR with incomplete blood count recovery (CRi)” value worked out at 2.1% and the “Participants who achieved complete remission (CR)” value was determined as 4.2%. The Participants with remission in data set [3] (as summed in the discussion) is recorded as 4 n (%). Besides, in data set [4] (setting [5]), the “accumulation ratio (AR) based on AUC0‐24h” value is given as 1.29 and the “accumulation ratio (AR) based on C max” value is 1.21. Moreover, in data set [4] (both monotherapy and combination arms), the “Increase of C max, AUC0‐24h and AUClast with dose” value is “dose‐proportional”. Moreover, the half-life in data set [4] (monotherapy, Cycle 1 Day 15) was 7.2 to 25.2 h. In addition, in data set [4] (Cohorts 1 through 3 (60, 90, 120 mg QD 21/28)), the Tmax was about 3 h. Moreover, in data set [4] (setting [6]), the Tmax is 3 to 4.6 h and the half-life was 12.9 to 24.6 h. For the same molecule, in data set [4] (monotherapy, Cycle 1 Day 1, 90% CI 0.44–1.08), the “C max versus dose, power model estimated slope” value is listed as 0.76. Also, the “AUC0‐24h versus dose, power model estimated slope” value in data set [4] (monotherapy, Cycle 1 Day 1, 90% CI 0.49–1.15) is reported as 0.82. Moreover, the “Time at which steady state is reached” value in data set [4] (repeated daily doses) is at most 8 days.
